# According to publication PMC7817177 (eLife, 2021):
# B1: GST-tagged binder of ARL2 (BART), full length (natural protein, human, UniProt Q9Y2Y0 1-163, looked up)
# chain: MDALEGESFALSFSSASDAEFDAVVGYLEDIIMDDEFQLLQRNFMDKYYLEFEDTEENKLIYTPIFNEYISLVEKYIEEQLLQRIPEFNMAAFTTTLQHHKDEVAGDIFDMLLTFTDFLAFKEMFLDYRAEKEGRGLDLSSGLVVTSLCKSSSLPASQNNLRH
# Key:
# ARL3 = molecular target: T1, ARL3 (Homo sapiens, UniProt P36405); test: fluorescence polarisation, competition with mantGDP; type: binding; details: 2 uM mantGDP, 2 uM ARL3-GDP, 2 uM ARL13B 18-278 (GEF) present, pH 7.5, 5 mM MgCl2, room temperature, competitive
# T1 construct: full-length, C-terminal His6 tag (untagged thrombin-cut version in some assays), E. coli BL21-CodonPlus(DE3)-RIL
# ARL3^ΔN (ARL3^17-182) = molecular target: T2, ARL3^ΔN (ARL3^17-182) (Homo sapiens, UniProt P36405); test: fluorescence polarisation nucleotide exchange, displacement of mantGDP; type: binding; details: 150 uM GppNHp with ARL13B 18-278 (GEF); competitive
# T2 construct: residues 17-182 (N-terminal helix removed), C-terminal His6 tag, E. coli
# [1] = molecular target: ADP-ribosylation factor-like 3 (ARL3), full length (human, UniProt P36405 1-182); test: cell-based or functional assay
# Sequence of ADP-ribosylation factor-like 3 (ARL3), full length (P36405 whole entry): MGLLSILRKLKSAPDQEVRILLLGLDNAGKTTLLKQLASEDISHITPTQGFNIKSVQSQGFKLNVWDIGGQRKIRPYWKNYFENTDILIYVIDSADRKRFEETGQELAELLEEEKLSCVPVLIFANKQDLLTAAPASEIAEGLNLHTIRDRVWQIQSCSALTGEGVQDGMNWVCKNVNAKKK
# T1 sequence (P36405 2-182): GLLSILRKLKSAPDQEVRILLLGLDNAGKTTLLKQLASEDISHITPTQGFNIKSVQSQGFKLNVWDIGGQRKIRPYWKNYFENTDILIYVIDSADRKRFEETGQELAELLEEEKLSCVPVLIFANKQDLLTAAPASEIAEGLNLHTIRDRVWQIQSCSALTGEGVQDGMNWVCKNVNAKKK
# T2 sequence (P36405 17-182, stated change not applied): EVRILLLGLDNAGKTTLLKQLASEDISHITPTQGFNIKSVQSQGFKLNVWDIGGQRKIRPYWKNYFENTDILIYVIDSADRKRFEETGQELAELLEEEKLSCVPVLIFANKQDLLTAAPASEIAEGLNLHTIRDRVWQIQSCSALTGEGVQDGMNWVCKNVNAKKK
molecule,measurement,setting,value
Nc1nc2c(ncn2[C@@H]2O[C@H](COP(=O)(O)OP(=O)(O)NP(=O)(O)O)[C@@H](O)[C@H]2O)c(=O)[nH]1 [GppNHp],% mantGDP binding relative to no unlabelled nucleotide,ARL3; 40 uM unlabelled GppNHp,83.7%
same,"fluorescence polarisation nucleotide exchange, displacement of mantGDP",ARL3^ΔN (ARL3^17-182),ARL3^ΔN undergoes significant nucleotide exchange upon the addition of ARL13B
Nc1nc2c(ncn2[C@@H]2O[C@H](COP(=O)(O)OP(=O)(O)O)[C@@H](O)[C@H]2O)c(=O)[nH]1 [GDP],% mantGDP binding relative to no unlabelled nucleotide,ARL3; 40 uM unlabelled GDP,excess unlabelled GDP was able to compete with mantGDP
Nc1nc2c(ncn2[C@@H]2O[C@H](COP(=O)(O)OP(=O)(O)OP(=O)(O)O)[C@@H](O)[C@H]2O)c(=O)[nH]1 [GTP],% mantGDP binding relative to no unlabelled nucleotide,ARL3; 40 uM unlabelled GTP,53%
B1,acceleration by 20 µM BART of the exchange of 2 µM ARL3mantGDP with 150 µM unlabelled GDP and 10 µM ARL13B^18-278 (fluorescence polarisation),[1],~70 fold
